Data from ChEMBL document CHEMBL1126913, “A homologous series of permanently charged 1,4-dihydropyridines: novel probes designed to localize drug binding sites on ion channels” (J Med Chem, 1993).

Target: Voltage-dependent L-type calcium channel subunit alpha-1C (Rattus norvegicus, UniProt P22002)
Assay: Inhibition of [3H](+)-PN200-110 binding to L-type calcium channel 1,4-DHP binding site of rat ventricular myocytes
Assay type: cell-based, Ventricular myocyte

Sequence of Voltage-dependent L-type calcium channel subunit alpha-1C (P22002 whole entry): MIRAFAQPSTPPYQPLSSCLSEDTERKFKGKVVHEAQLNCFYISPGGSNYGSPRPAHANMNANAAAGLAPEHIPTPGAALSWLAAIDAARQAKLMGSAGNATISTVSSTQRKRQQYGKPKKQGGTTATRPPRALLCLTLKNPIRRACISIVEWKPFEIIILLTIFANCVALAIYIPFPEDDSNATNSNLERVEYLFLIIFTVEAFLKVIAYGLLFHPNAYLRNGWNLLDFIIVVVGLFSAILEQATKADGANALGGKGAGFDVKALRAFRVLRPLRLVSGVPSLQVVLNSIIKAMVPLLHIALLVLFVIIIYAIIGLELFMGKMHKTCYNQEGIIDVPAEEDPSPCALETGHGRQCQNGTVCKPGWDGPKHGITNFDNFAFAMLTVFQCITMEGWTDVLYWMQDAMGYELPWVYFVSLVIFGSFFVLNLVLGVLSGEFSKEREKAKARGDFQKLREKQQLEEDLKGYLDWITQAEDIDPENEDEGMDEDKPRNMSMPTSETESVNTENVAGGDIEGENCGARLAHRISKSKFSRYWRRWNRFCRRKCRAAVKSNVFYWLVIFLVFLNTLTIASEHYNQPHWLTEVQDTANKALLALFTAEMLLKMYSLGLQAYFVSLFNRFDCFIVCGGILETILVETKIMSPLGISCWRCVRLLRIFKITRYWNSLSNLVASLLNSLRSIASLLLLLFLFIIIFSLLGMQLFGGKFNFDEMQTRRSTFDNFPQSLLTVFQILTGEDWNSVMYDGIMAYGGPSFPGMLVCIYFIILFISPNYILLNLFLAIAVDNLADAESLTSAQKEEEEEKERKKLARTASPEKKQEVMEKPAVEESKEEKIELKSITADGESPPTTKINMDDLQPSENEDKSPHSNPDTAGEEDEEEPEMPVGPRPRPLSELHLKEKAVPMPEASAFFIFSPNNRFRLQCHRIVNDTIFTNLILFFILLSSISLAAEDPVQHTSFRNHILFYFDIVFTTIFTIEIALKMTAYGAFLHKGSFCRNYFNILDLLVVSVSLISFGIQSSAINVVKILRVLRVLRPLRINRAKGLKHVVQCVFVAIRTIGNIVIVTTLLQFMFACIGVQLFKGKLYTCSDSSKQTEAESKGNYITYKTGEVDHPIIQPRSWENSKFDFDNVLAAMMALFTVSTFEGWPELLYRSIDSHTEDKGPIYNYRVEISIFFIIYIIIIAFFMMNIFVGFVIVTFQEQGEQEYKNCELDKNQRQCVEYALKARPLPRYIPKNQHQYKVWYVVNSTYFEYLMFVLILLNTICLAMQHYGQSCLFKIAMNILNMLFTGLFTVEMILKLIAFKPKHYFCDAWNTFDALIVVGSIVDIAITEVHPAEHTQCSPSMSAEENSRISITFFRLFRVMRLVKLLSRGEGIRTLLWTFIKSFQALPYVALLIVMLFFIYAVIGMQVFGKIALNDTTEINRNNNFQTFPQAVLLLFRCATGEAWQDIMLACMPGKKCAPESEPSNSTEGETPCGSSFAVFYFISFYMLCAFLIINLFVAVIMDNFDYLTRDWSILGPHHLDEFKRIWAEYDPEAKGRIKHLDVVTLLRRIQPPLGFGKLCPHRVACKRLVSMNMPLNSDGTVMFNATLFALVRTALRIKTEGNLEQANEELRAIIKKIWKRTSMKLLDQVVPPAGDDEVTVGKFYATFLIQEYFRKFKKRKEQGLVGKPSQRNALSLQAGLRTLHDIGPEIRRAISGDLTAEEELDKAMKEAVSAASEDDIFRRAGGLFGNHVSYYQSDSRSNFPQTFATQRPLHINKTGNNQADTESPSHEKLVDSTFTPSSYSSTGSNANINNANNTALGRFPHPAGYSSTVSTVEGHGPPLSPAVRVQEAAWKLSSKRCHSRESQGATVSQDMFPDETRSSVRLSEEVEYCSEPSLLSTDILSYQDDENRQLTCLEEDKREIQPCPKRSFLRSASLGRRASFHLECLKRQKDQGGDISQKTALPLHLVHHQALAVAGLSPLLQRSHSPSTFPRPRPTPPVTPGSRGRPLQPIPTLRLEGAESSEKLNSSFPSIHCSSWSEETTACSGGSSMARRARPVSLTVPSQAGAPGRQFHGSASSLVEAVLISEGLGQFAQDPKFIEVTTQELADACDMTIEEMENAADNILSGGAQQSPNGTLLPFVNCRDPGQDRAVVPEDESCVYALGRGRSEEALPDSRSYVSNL

Structure (SMILES)	Ki
COC(=O)C1=C(C)NC(C)=C(C(=O)OCC[N+](C)(C)C)C1c1ccccc1C(F)(F)F (configuration not stated)	33.2 nM
CCCCCCCCCCCCCCOC(=O)C1=C(C)NC(C)=C(C(=O)OC)C1c1ccccc1C(F)(F)F (configuration not stated)	15.7 nM
